The values that follow come from PMC12040169 (PLOS Biology, 2025).

Usually viability stands for a read-out of living cells in per cent, often relative to untreated cells.

A short description of the series: in vitro. The settings on record: human, hela cells, % viability.

As for `CC(C)CNC(=S)NNC(=O)CC(C)O` (stereo not shown) [CBK266921], the viability at 28.5 h, 10 µM is 93.9%. For the molecule `Cc1ccnn1CCC(=O)N1CCn2cc(C(F)(F)F)nc2C1` [CBK283912], the viability at 28.5 h, 10 µM amounted to 110%. On the same count and under the same terms, next, `Cc1ccc(OCCn2ccnc(N3CCNCC3)c2=O)c([N+](=O)[O-])n1` [CBK001381C]: 88.1%; `O=C(CSc1nnc(Cc2ccccc2)o1)Nc1c(Cl)cc(Cl)cc1Cl` [CBK266119]: 99.8%; `Cc1nc(-c2ccccc2)ncc1COC(=O)N1CCOCC1` [CBK200147]: 112%. The same measure, in the same setting: next, `CC(C)CC(C(=O)O)N1C(=O)/C(=C2/C(=O)Nc3ccc(Br)cc32)SC1=S` (stereo not shown) [CBK261610]: 84.7%; `O=[N+]([O-])c1ccn(C2CC(O)C(CO)O2)c1` (stereo not shown) [CBK201229]: 83.7%. For the molecule `CCN(CC)CCN(Cc1cc2ccc(C)cc2[nH]c1=O)C(=O)Nc1ccc(Cl)cc1` [CBK068680], the viability at 28.5 h, 10 µM came out at 84.9%. On to `Cc1oc(-c2ccccc2)cc1C(=O)Nc1cc2ccccc2c(N2CCNCC2)n1` [CBK038938T], for which the viability at 28.5 h, 10 µM came to 104%. Regarding `O=C(NC(S(=O)O)C(F)(F)F)OCc1ccccc1` (stereo not shown) [CBK018979], the viability at 28.5 h, 10 µM turned out to be 87%.

`CSc1nc(N)c2nccnc2n1` [CBK025779]: the viability at 28.5 h, 10 µM was 104%. `CC(=O)N1CCN(C[C@@H]2C=C(C)[C@H](Cc3nnc(C)o3)C[C@H]2C(C)C)CC1` [CBK289219]: the viability at 28.5 h, 10 µM came to 114%.

With `O=C(c1cc(CO)ccn1)N(Cc1ccccn1)CC1CCCO1` (stereo not shown) [CBK306820], the viability at 28.5 h, 10 µM is 97%. As to `CC(C)Nc1nc(Cl)nc(Nc2ccc(I)cc2)n1` [CBK027685], the viability at 28.5 h, 10 µM is 97.6%. As to `Cc1cc(O)nc(C(C)N2CCOC(C(C)(C)C)C2)n1` (stereo not shown) [CBK304097], the viability at 28.5 h, 10 µM stood at 104%.

On to `Cc1ccc(NC(=O)c2cnc3sccn3c2=O)cc1` [CBK287448], for which the viability at 28.5 h, 10 µM worked out at 93.1%. On the same count and under the same terms, the figure for `CN1CCN(CCCNC(=O)N2CCCC(CO)C2)CC1` (stereo not shown) [CBK156029] is 99.7%.

In the case of `CCN1CCN(c2ccc(-c3ccc(OCC4CCN(C(=O)OC(C)(C)C)CC4)cn3)cn2)CC1` [CBK174505], the viability at 28.5 h, 10 µM amounted to 109%.

`CCCCSc1nc(N)cc(N2CCC(N3CCCC3=O)CC2)n1` [CBK307525]: the viability at 28.5 h, 10 µM amounted to 108%. Consider `COc1ccc([N+](=O)[O-])cc1CSc1nnc(-c2ccco2)n1C` [CBK269671], for which the viability at 28.5 h, 10 µM was 89.3%. Take `O=C1Nc2ccc(-c3ccsc3)cc2C1(O)O` [CBK000421]: the viability at 28.5 h, 10 µM was 84.5%. As to `CC(C)(C)OC(=O)N1CCC(C2OCc3cc(-c4ccc(S(C)(=O)=O)cn4)ccc3O2)CC1` (stereo not shown) [CBK173326], the viability at 28.5 h, 10 µM came out at 87.6%. For `COc1ccc(-c2[nH]c3ncccc3c2CN2CCCC2)cc1` [CBK285331], the viability at 28.5 h, 10 µM turned out to be 69.4%. Turning to `CCCc1ccc(S(=O)(=O)Nc2cccc(C(=O)Nc3ccc(F)cc3)c2)cc1` [CBK038978], the viability at 28.5 h, 10 µM was determined as 97.4%. As to `Nc1nonc1-n1nnc(C(=O)O)c1-c1cccs1` [CBK266674], the viability at 28.5 h, 10 µM was found to be 99.4%. The same measure, in the same setting: the figure for `COc1ccc([C@@]23CCC(NC(=O)CCc4cccnc4)C[C@@H]2N(C)CC3)cc1OC` (stereo partly shown) [CBK003770] is 92.8%; for `COc1ccc(CCN2CCN(c3nccnc3OCC3COc4ccccc4O3)CC2)cc1OC` (stereo not shown) [CBK082808T] it is 104%. Consider `CC(C)c1ccc(/C=N/Nc2nc(-c3ccccc3)cs2)cc1` [CBK263091], for which the viability at 28.5 h, 10 µM came to 94.5%. As to `O=C(O)CCn1c(SCCc2ccccc2)nc2ccccc21` [CBK262384], the viability at 28.5 h, 10 µM came out at 107%. Take `CC(Cc1ccccn1)NC(=O)Cn1ccnc1` (stereo not shown) [CBK282069]: the viability at 28.5 h, 10 µM is 104%. For `Cc1csc(Sc2nc3ccccc3nc2C(F)(F)F)n1` [CBK093775], the viability at 28.5 h, 10 µM turned out to be 94.9%. On the same count and under the same terms, next, `O=c1oc2ccccc2c(O)c1Cc1c(O)c2ccccc2oc1=O` [CBK016703G]: 74%; `O=C(NC1CCS(=O)(=O)C1)c1cnc2c(OC(F)(F)F)cccc2c1O` (stereo not shown) [CBK304323]: 99.7%. On to `O=[N+]([O-])c1cc(Nc2ncnc3ccccc23)cc(Oc2ccccc2)c1` [CBK293928], for which the viability at 28.5 h, 10 µM turned out to be 90.3%. `CCc1ccc(Oc2c(CC(=O)O)oc3cc(O)c(CC)cc3c2=O)cc1` [CBK266108]: the viability at 28.5 h, 10 µM came to 106%. On the same count and under the same terms, next, `CN1C[C@@H](C(=O)N(C)C)[C@@]2(CCc3ccccc3C(=O)N2)C1` [CBK284792]: 102%. For the molecule `COCCCn1c(=O)[nH]c2ncc(-c3cccc(NC(C)=O)c3)nc21` [CBK064433], the viability at 28.5 h, 10 µM worked out at 97.5%. Same read-out and setting: next, `COc1ccc2oc(C(=O)NC(C)c3cn(C)nc3C)cc2c1` (stereo not shown) [CBK281573]: 90.9%; `COc1ccc(CN2CCCN(c3ccnc(OCCN4CCOCC4)n3)CC2)cc1` [CBK083800]: 99.2%; `Cc1cc(C)n(CCCn2cncc2-c2ccc3c(c2)CC(C)N3C)n1` (stereo not shown) [CBK281773]: 62%. Turning to `COc1cccc(CC(=O)N(CCC#N)Cc2ccco2)c1` [CBK304859], the viability at 28.5 h, 10 µM is 92.5%. Take `O=C(O)CCC(=O)Nc1ccc(NC(=O)c2ccccc2)c(Cl)c1` [CBK263478]: the viability at 28.5 h, 10 µM stood at 86.8%. On to `Cc1cc(C)nc(SCc2nc3ccc([N+](=O)[O-])cc3[nH]2)n1` [CBK264634], for which the viability at 28.5 h, 10 µM was 85.3%. On the same count and under the same terms, next, `Cc1ccc(C(=O)NCc2ccc3c(c2)CCO3)c(N2CCOCC2)n1` [CBK106202]: 88.8%; `CC(=O)c1cccc(NC(=O)Nc2ccc(S(=O)(=O)Nc3cc(C)on3)cc2)c1` [CBK299794]: 111%; `Cc1ccc(NC(=O)CC2Nc3ccccc3OC2=O)cc1C` (stereo not shown) [CBK270214]: 81.5%. Take `O=C1NC[C@@H](Cc2ccccc2)NC(=O)C2(C/C=C/COc3ccccc31)CCN(C(=O)CN1CCCC1)CC2` [CBK292184]: the viability at 28.5 h, 10 µM amounted to 103%. For `Cc1c(C(=O)Nc2cccc(-c3nc4ccccc4s3)c2)sc2nc[nH]c(=O)c12` [CBK285825], the viability at 28.5 h, 10 µM is 80.5%. In the case of `O=C(c1ccc(F)cc1)C1CCN(Cc2ncc[nH]2)CC1` [CBK149135], the viability at 28.5 h, 10 µM amounted to 90.1%.

In the case of `Cc1cc(NC(=O)c2ccc3c(c2)OCO3)nc2c1c(=O)oc1ccccc12` [CBK291121], the viability at 28.5 h, 10 µM was determined as 117%.

As for `CSc1ccc(-n2cc(-c3ccc(F)cc3F)nn2)cc1` [CBK112979], the viability at 28.5 h, 10 µM came to 99.3%. Regarding `Cc1sc(NC(=O)CN2CCOCC2)c(C(=O)c2ccccc2)c1C` [CBK263346], the viability at 28.5 h, 10 µM worked out at 109%. As to `O=C(NC[C@H]1CC[C@H](c2nnc(-c3ccsc3)o2)CC1)C1CCC1` [CBK283363], the viability at 28.5 h, 10 µM was 87.1%. As for `O=c1[nH]c(=S)[nH]c(O)c1CN1CCOCC1` [CBK262493], the viability at 28.5 h, 10 µM (bulk resorufin, single well) was found to be 98.7%. Take `CC(C)C12CN3CC(C(C)C)(CN(C1)C3c1ccc3c(c1)OCO3)C2=O` (stereo not shown) [CBK265981]: the viability at 28.5 h, 10 µM turned out to be 100%. As for `COc1cccc(/C=C(/C#N)c2ccc(Cl)cc2)c1OCc1cccc(C(=O)O)c1` [CBK266721], the viability at 28.5 h, 10 µM came out at 97.2%. The same measure, in the same setting: the figure for `O=C(CC(C(=O)O)n1cncn1)c1ccc(Br)cc1` (stereo not shown) [CBK269305] is 103%. For the molecule `O=C(O)C1C2C=CC3(CN(c4ccccc4)C(=O)C13)O2` (stereo not shown) [CBK286992], the viability at 28.5 h, 10 µM was determined as 87.4%. For the molecule `COCC(=O)N[C@H]1CCN2C(=O)c3cc(-c4ccc(F)cc4F)ccc3NC(=O)[C@@H]2C1` [CBK289561], the viability at 28.5 h, 10 µM was found to be 78.6%. Take `O=C(NCCc1ccc(O)cc1)c1cncc(-c2ccc(C(=O)N3CCOCC3)cc2)c1` [CBK158620]: the viability at 28.5 h, 10 µM was 112%. Still for that read-out and setting: the figure for `Cc1cc(NC(=O)c2cscn2)c2ccccc2n1` [CBK116275] is 85.6%; for `C=C(C)CN1CCN(C(C(=O)O)c2c[nH]c3ccc(OCc4ccccc4)cc23)CC1` (stereo not shown) [CBK286668] it is 80.6%; for `Cc1noc(CN2CCNC(=O)C2c2ccccc2C(F)(F)F)n1` (stereo not shown) [CBK306405] it is 98.2%.

On to `Cc1ccc(N(CC(=O)NCC2CCCO2)S(=O)(=O)c2ccc(Cl)cc2)cc1` (stereo not shown) [CBK269039], for which the viability at 28.5 h, 10 µM came out at 104%. The same measure, in the same setting: next, `CC(=O)N1N=C(COc2ccc3c(c2)OCO3)OC1c1ccc(C)cc1` (stereo not shown) [CBK294397]: 83%.

With `CN(C)CCN(C)c1cccc(-c2ccc(CCC(=O)O)cc2)n1` [CBK036983], the viability at 28.5 h, 10 µM is 105%.

Take `Nc1ncc(-c2cccc(/C=C/C(=O)O)c2)nc1N1CCN(CCO)CC1` [CBK063665]: the viability at 28.5 h, 10 µM was 98.7%. Take `O=C(CN1CCCN(c2ncc(C(F)(F)F)cc2Cl)CC1)Nc1c(F)cccc1F` [CBK074636]: the viability at 28.5 h, 10 µM came to 92.5%. Turning to `Cc1nccn1CCN(C)C(=O)C1CC2C=CC1C21CC1` (stereo not shown) [CBK282084], the viability at 28.5 h, 10 µM stood at 91.7%.

For `CC(C)(C)c1ccc(S(=O)(=O)N/N=C\c2ccc(Cl)cc2Cl)cc1` [CBK264759], the viability at 28.5 h, 10 µM was determined as 84.6%. In the case of `CC(=O)Nc1cccc(NC(=O)CSc2ccc(C(F)(F)F)cc2[N+](=O)[O-])c1` [CBK264758], the viability at 28.5 h, 10 µM stood at 103%.

`CCN(CC)Cn1nc(Nc2ccccc2)n(-c2ccccc2)c1=S` [CBK261672]: the viability at 28.5 h, 10 µM worked out at 87.6%. Same read-out and setting: the figure for `O=C1CCC[C@]2(CN(Cc3ccccc3)C[C@H]2c2ccncc2)N1` [CBK283348] is 84.5%; for `COc1ccc(CNC(=O)c2cc(S(=O)(=O)N(C)C)cs2)cc1` [CBK307579] it is 87.1%.

`Cc1ccc(C(=O)c2cccc(N3C(=O)c4ccc(C(=O)O)cc4C3=O)c2)cc1C` [CBK286994]: the viability at 28.5 h, 10 µM turned out to be 110%. The same measure, in the same setting: next, `Cc1cc(C)cc(NC(=O)CSc2ncccn2)c1` [CBK287577]: 97.8%; `Cc1cn(CC(=O)N2CCCC3(CCN(C(=O)c4ccoc4)C3)C2)c(=O)[nH]c1=O` (stereo not shown) [CBK131634]: 104%; `NS(=O)(=O)c1ccc(NC(=O)CSc2ccc3ccccc3c2)cc1` [CBK268203]: 89.8%. On to `O=C(COc1cccc(Cl)c1)NCCc1ccc(S(=O)(=O)NC(=O)NC2CCCCC2)cc1` [CBK011798], for which the viability at 28.5 h, 10 µM was 93.4%.
